Active and inactive are the calls of the source.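 How the source made its calls: active means fitted curve reaches 200% activation at or below the highest valid dose tested for that compound; inconclusive means flat fit between 30 and 70% activation, or unreliable fit; inactive means the rest.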
Biological target: Endoplasmic reticulum aminopeptidase 2 (Homo sapiens) (UniProt Q6P179)
Test: ERAP2 activation by compounds, dose response, selectivity assay for selective ERAP1 modulator project, biochemical, fluorescence plate reader, cherry-picked samples (AID 743319)
Details: recombinant ERAP2, Arg-AMC cleavage fluorescence, 1 h

Chain of Endoplasmic reticulum aminopeptidase 2 (Homo sapiens) (Q6P179 whole entry, looked up): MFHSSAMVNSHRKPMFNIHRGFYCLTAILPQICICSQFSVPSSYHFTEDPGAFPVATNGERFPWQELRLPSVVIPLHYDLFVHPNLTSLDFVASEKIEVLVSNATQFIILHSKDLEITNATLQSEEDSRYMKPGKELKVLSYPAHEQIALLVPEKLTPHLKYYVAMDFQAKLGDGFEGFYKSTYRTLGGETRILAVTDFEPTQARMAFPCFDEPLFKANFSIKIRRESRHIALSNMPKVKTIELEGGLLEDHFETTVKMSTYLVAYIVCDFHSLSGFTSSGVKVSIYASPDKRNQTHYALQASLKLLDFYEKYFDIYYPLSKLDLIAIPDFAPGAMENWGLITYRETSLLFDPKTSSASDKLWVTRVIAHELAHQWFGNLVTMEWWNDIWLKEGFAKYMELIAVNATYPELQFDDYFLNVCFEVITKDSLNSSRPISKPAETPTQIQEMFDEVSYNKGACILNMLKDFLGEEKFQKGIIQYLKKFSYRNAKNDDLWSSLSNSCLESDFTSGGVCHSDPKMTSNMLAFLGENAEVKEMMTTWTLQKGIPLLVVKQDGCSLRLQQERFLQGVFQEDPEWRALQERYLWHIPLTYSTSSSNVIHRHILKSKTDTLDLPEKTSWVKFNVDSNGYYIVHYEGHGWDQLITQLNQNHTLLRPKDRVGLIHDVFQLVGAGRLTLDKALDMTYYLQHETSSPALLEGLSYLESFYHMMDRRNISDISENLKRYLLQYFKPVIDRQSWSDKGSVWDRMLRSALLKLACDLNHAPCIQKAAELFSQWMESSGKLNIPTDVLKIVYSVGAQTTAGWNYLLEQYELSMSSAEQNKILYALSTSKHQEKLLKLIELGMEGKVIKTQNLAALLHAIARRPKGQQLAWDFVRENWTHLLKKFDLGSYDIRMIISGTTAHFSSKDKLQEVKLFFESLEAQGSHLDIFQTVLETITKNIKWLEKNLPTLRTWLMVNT

Structure (SMILES) | activation (at 11 µM (top of the series)) | AC200 | further results
COc1ccc2c3c([nH]c2c1)[C@H](CO)N(Cc1cc(F)ccc1F)CC31CN(C)C1 | 11.2% (inactive) |  | 
COc1ccc(-c2cc3ccc(O)cc3oc2=O)cc1 |  | 775 nM | 
CC(=O)N1[C@@H]2c3ccc(/C=C/c4ccccc4)c(=O)n3C[C@H]1[C@H](CO)[C@H]2C(=O)N1CCOCC1 |  | 2030 nM | 
Cc1c(O)ccc2c(CN3CCN(Cc4ccccc4)CC3)cc(=O)oc12 |  | 5190 nM | 
COc1cccc(S(=O)(=O)N(C)C[C@@H]2Oc3ncccc3C(=O)N([C@H](C)CO)C[C@@H]2C)c1 | 4.98% (inactive) |  | 
CC1CN(Cc2cc(=O)oc3cc(O)c(Cl)cc23)CC(C)O1 (configuration not stated) |  | 2520 nM | 
Cc1noc(C)c1NC(=O)N(C)C[C@@H]1Oc2c(NC(=O)Nc3ccccc3)cccc2C(=O)N([C@H](C)CO)C[C@@H]1C | 10.6% (inactive) |  | 
CNC[C@H]1OCCCC[C@@H](C)Oc2ccc(NS(=O)(=O)c3ccc(C)cc3)cc2C(=O)N([C@@H](C)CO)C[C@H]1C | 1.54% (inactive) |  | 
CCN(CC)Cc1c(O)ccc2cc(-c3nc4ccccc4n3C)c(=O)oc12 |  | 436 nM | 
CCCc1cc(=O)oc2c(CN(CC)CC)c(O)c(Cl)cc12 |  | 1330 nM | 
COCCCn1c(C(=O)N2CCOCC2)cc2c(=O)n3ccccc3nc21 |  | 6360 nM | 
COC(=O)[C@H]1[C@H](CO)[C@H]2Cn3c(ccc(/C=C/c4ccccc4)c3=O)[C@@H]1N2C(=O)C1CCC1 |  | 1600 nM | 
Cc1cc(=O)oc2cc(NS(=O)(=O)c3ccc(F)cc3)ccc12 |  | 2110 nM | 
COc1ccc(S(=O)(=O)Nc2ccc3c(c2)C(=O)N([C@@H](C)CO)C[C@H](C)[C@H](CN(C)C)OCCCC[C@@H](C)O3)cc1 | 5.02% (inactive) |  | 
C[C@@H]1CCCCO[C@H](CN(C)Cc2ccc(C(=O)O)cc2)[C@H](C)CN([C@@H](C)CO)C(=O)c2cc(NC(=O)Nc3ccc(C(F)(F)F)cc3)ccc2O1 | 11.3% (inactive) |  | 
C[C@@H]1CN([C@H](C)CO)C(=O)c2cccc(NC(=O)Nc3ccccc3)c2O[C@@H]1CN(C)Cc1ccc(C(=O)O)cc1 | 23.3% (inactive) |  | 
Cc1cc(=O)oc2c(CN3CCN(CCO)CC3)c(O)ccc12 |  | 3010 nM | 
COc1ccc(CN(C)C[C@@H]2OCCCC[C@H](C)Oc3ccc(NS(=O)(=O)c4cccs4)cc3C(=O)N([C@H](C)CO)C[C@@H]2C)cc1 | 10.2% (inactive) |  | 
CO[C@@H]1CN(C)C(=O)c2ccc(NC(=O)Nc3cccc(Cl)c3)cc2OC[C@@H](C)NC[C@H]1C | 3.9% (inactive) |  | 
Cc1ccc2nc3c(cc(C(=O)NCc4ccccc4)c(=N)n3CCCn3ccnc3)c(=O)n2c1 |  | > 11000 nM (inactive) | 
COc1ccc(NC(=O)Nc2cccc3c2O[C@H](CN(C)Cc2ccc(C(=O)O)cc2)[C@H](C)CN([C@H](C)CO)C3=O)cc1 | 15.1% (inactive) |  | 
CCc1cc(=O)oc2c(CN3CCN(C)CC3)c(O)ccc12 |  | 3170 nM | 
C[C@@H]1CCCCO[C@@H](CN(C)CC2CC2)[C@@H](C)CN([C@H](C)CO)C(=O)c2cc(NS(=O)(=O)c3cccs3)ccc2O1 | 14.7% (inactive) |  | 
CC(=O)N1[C@@H]2c3ccc(/C=C/c4ccccc4)c(=O)n3C[C@H]1[C@H](CO)[C@H]2C(=O)N(C)C |  | 1570 nM | 

Structure (SMILES) | activation (at 11 µM (top of the series)) | AC200 | further results
Cc1c(CC(=O)N2CCN(C(=O)C3COc4ccccc4O3)CC2)c(=O)oc2cc(O)c(Cl)cc12 (configuration not stated) |  | 1520 nM | 
COC(=O)[C@@H]1[C@@H](CO)[C@@H]2Cn3c(ccc(/C=C/c4ccccc4)c3=O)[C@H]1N2C(=O)C1CCC1 |  | 2170 nM | 
C[C@@H]1CCCCO[C@@H](CN(C)Cc2ccc(C(=O)O)cc2)[C@H](C)CN([C@@H](C)CO)C(=O)c2cc(NS(=O)(=O)c3ccc(Cl)cc3)ccc2O1 | 24.2% (inactive) |  | 
CCCNC(=O)C[C@H]1CC[C@@H]2[C@H](COC[C@H](O)CN2C(=O)Nc2cccc(Cl)c2)O1 | 19.4% (inactive) |  | 
CCCN1[C@@H]2Cn3c(ccc(/C=C/c4ccccc4)c3=O)[C@H]1[C@@H](C(=O)NCc1ccccn1)[C@@H]2CO |  | 2260 nM | 
O=C(O)c1ccccc1NS(=O)(=O)c1cccc(-n2sc3ccccc3c2=O)c1 | 3.47% (inactive) |  | 
CCN1[C@@H]2c3ccc(/C=C/c4ccccc4)c(=O)n3C[C@H]1[C@H](CO)[C@H]2C(=O)N1CCOCC1 |  | 3520 nM | 
N#Cc1c(N)n(CCNC(=O)c2ccccc2)c2nc3ccccc3nc12 |  | 4630 nM | 
C[C@H](CO)N1C[C@H](C)[C@@H](CN(C)CC2CC2)Oc2c(NC(=O)Nc3ccc(C(F)(F)F)cc3)cccc2C1=O | -20.2% (inactive) |  | 
CCNC(=O)[C@H]1[C@H](CO)[C@H]2Cn3c(ccc(/C=C/c4ccccc4)c3=O)[C@@H]1N2C(=O)C1CCCC1 |  | 1830 nM | 
C[C@@H]1CN([C@H](C)CO)C(=O)c2cc(NC(=O)Nc3ccc(F)cc3)ccc2O[C@H]1CN(C)Cc1ccc(C(=O)O)cc1 | 1.24% (inactive) |  | 
COc1ccc(NC(=O)Nc2ccc3c(c2)C(=O)N([C@H](C)CO)C[C@@H](C)[C@H](CN(C)Cc2ccc(C(=O)O)cc2)OCCCC[C@@H](C)O3)cc1 | 12.3% (inactive) |  | 
C[C@H]1CN([C@@H](C)CO)C(=O)c2cccc(NC(=O)Nc3ccc4c(c3)OCO4)c2O[C@@H]1CN(C)CC1CC1 | 12.8% (inactive) |  | 
C[C@@H]1CCCCO[C@H](CN(C)Cc2ccccc2)[C@H](C)CN([C@H](C)CO)C(=O)c2cc(NS(=O)(=O)c3ccccc3)ccc2O1 | 22.4% (inactive) |  | 
COc1cc2ccc(=O)oc2cc1O |  | 678 nM | 
O=c1cc(CN2CCOCC2)c2cc(Cl)c(O)cc2o1 |  | 2510 nM | 
CCc1c(C)c2cc(Cl)c(O)c(CN(C)C)c2oc1=O |  | 803 nM | 
CCCN1[C@@H]2c3ccc(/C=C/c4ccccc4)c(=O)n3C[C@H]1[C@H](CO)[C@H]2C(=O)NCc1ccccn1 |  | 2190 nM | 
COc1ccc(CN(C)C[C@H]2OCCCC[C@@H](C)Oc3ccc(NS(=O)(=O)c4cccs4)cc3C(=O)N([C@@H](C)CO)C[C@@H]2C)cc1 | 10.1% (inactive) |  | 
CCCN(C)C[C@@H]1OCCCC[C@@H](C)Oc2ccc(NS(=O)(=O)c3ccc(C)cc3)cc2C(=O)N([C@@H](C)CO)C[C@@H]1C |  |  | activation (at 5 µM (top of the series)): 6.28% (inactive)
C[C@@H]1CCCCO[C@@H](CN(C)CC2CC2)[C@@H](C)CN([C@H](C)CO)C(=O)c2cc(NS(=O)(=O)c3ccc(Cl)cc3)ccc2O1 | 18.4% (inactive) |  | 
CN1CCCC1CCNc1ccc2c(=O)c3ccccc3oc2c1 (configuration not stated) |  | 1140 nM | 
C[C@H]1CN([C@@H](C)CO)C(=O)c2cccc(NC(=O)Nc3ccc(F)cc3)c2O[C@@H]1CN(C)C(=O)Nc1ccc2c(c1)OCO2 | 18.2% (inactive) |  | 
C[C@H](CO)N1C[C@H](C)[C@H](CN(C)Cc2ccc(C(=O)O)cc2)Oc2c(NC(=O)Nc3ccccc3)cccc2C1=O | 22.8% (inactive) |  | 

Structure (SMILES) | activation (at 11 µM (top of the series)) | AC200 | further results
C[C@@H]1CCCCO[C@@H](CN(C)Cc2ccc(C(=O)O)cc2)[C@@H](C)CN([C@H](C)CO)C(=O)c2cc(NC(=O)Nc3cccc4ccccc34)ccc2O1 | 5.34% (inactive) |  | 
COc1ccc(CN(C)C[C@@H]2OCCCC[C@@H](C)Oc3ccc(NS(=O)(=O)c4c(C)noc4C)cc3C(=O)N([C@@H](C)CO)C[C@@H]2C)cc1 | -1% (inactive) |  | 
COCC(=O)N1[C@@H]2c3ccc(/C=C/c4ccccc4)c(=O)n3C[C@H]1[C@H](CO)[C@H]2C(=O)N1CCOCC1 |  | 1500 nM | 
COc1ccc(C2=NN(c3ccc(C(=O)O)cc3)C(c3ccc(OC)c(OC)c3)C2)cc1 (configuration not stated) |  | 1580 nM | 
CCc1cc(=O)oc2c(CNCc3c(F)cccc3Cl)c(O)ccc12 |  | 1870 nM | 
C[C@@H]1CCCCO[C@@H](CN(C)C)[C@H](C)CN([C@@H](C)CO)C(=O)c2cc(NC(=O)Nc3ccc(C(F)(F)F)cc3)ccc2O1 |  |  | activation (at 10 µM (top of the series)): 14.3% (inactive)
C[C@@H]1CCCCO[C@@H](CN(C)Cc2ccccc2)[C@@H](C)CN([C@H](C)CO)C(=O)c2cc(NS(=O)(=O)c3cccs3)ccc2O1 |  |  | activation (at 5.6 µM (top of the series)): 12.1% (inactive)
COc1ccc(CN(C)C[C@H]2OCCCC[C@@H](C)Oc3ccc(NS(=O)(=O)c4cccs4)cc3C(=O)N([C@H](C)CO)C[C@H]2C)cc1 | 3.67% (inactive) |  | 
COCC(=O)N1[C@@H]2Cn3c(ccc(/C=C/c4ccccc4)c3=O)[C@H]1[C@@H](C(=O)N1CCOCC1)[C@@H]2CO |  | 1550 nM | 
CCNC(=O)[C@@H]1[C@@H](CO)[C@@H]2Cn3c(ccc(/C=C/c4ccccc4)c3=O)[C@H]1N2C(=O)C1CCCC1 |  | 1590 nM | 
C[C@@H]1CCCCO[C@@H](CN(C)Cc2ccc3c(c2)OCO3)[C@@H](C)CN([C@H](C)CO)C(=O)c2cc(NS(=O)(=O)c3cccs3)ccc2O1 | 1.03% (inactive) |  | 
C[C@@H]1CCCCO[C@@H](CN(C)C)[C@@H](C)CN([C@@H](C)CO)C(=O)c2cc(NS(=O)(=O)c3ccc(F)cc3)ccc2O1 | 5.3% (inactive) |  | 
O=C(O)c1cccc(NC(=O)c2ccccc2NC(=O)c2cccc([N+](=O)[O-])c2)c1 | 15.7% (inactive) |  | 
CC(=O)Oc1cc2oc(=O)cc(C)c2cc1Cl |  | 1100 nM | 
CN(C)Cc1c(O)ccc2cc(-c3nc4ccccc4n3C)c(=O)oc12 |  | 445 nM | 
C[C@@H]1CCCCO[C@@H](CN(C)C(=O)CCC(F)(F)F)[C@@H](C)CN([C@@H](C)CO)C(=O)c2cc(NS(=O)(=O)c3ccccc3)ccc2O1 |  |  | activation (at 2.6 µM (top of the series)): 14.4% (inactive)
O=C(C[C@@H]1CC[C@@H]2[C@H](COC[C@H](O)CN2C(=O)Nc2cccc(Cl)c2)O1)N1CCCCC1 | 2.69% (inactive) |  | 
CCCNC(=O)C[C@@H]1CC[C@@H]2[C@H](COC[C@H](O)CN2C(=O)Nc2cccc(Cl)c2)O1 | 22.2% (inactive) |  | 
CCC(=O)N(C)C[C@H]1Oc2ncc(C#Cc3ccncc3)cc2C(=O)N([C@H](C)CO)C[C@H]1C | -5.99% (inactive) |  | 
Cc1cc(=O)oc2c(CN3CCCC3)c(O)c(Cl)cc12 |  | 1400 nM | 
COc1cccc(CN(C)Cc2cc(=O)oc3cc(O)c(Cl)cc23)c1 |  | 1620 nM | 
Cc1cc(=O)oc2c(CN3CCN(C)CC3)c(O)c(Cl)cc12 | 12% (inactive) |  | 
CCN(CCCl)c1cc(CN(C)C)cc(NC(=O)c2ccc(C(=O)Nc3cc(CN(C)C)cc(N(CC)CCCl)c3)cc2)c1 | -8.9% (inactive) |  | 
C[C@@H]1CCCCO[C@@H](CN(C)CC2CCCCC2)[C@H](C)CN([C@@H](C)CO)C(=O)c2cc(NC(=O)Nc3ccccc3)ccc2O1 | 12.1% (inactive) |  | 
